Here are results for eight compounds from patent US4943576A, “Substituted quinoxalyl-imidazolidine-2,4-diones, processes for their preparation, their use as medicaments and pharmaceutical preparations” (Hoechst Aktiengesellschaft, priority 1987, dated 1990).

In experiment [1] the test system is sorbitol accumulation in nerve. As to the kind of experiment: In vitro inhibition of sorbitol accumulation, nerve (tissue of normal rats). In kind it is cell-based. As to conditions: Rattus norvegicus, 3 μmol/l. Here is the method: (§1) 2. in vitro inhibition of the sorbitol accumulation in erythrocytes in the lens or in the sciatic nerve of normal or streptozotocin-diabetic rats;
(§2) In vitro inhibition of sorbitol accumulation (tissue of normal rats)
(§3) The inhibiting values summarized in Table 2 were determined for some of the compounds according to the invention at a concentration of 3 μmol/l.

Experiment [2] relates to sorbitol accumulation in erythrocytes. As to the kind of experiment: In vitro inhibition of sorbitol accumulation, erythrocytes (tissue of normal rats). As to conditions: Rattus norvegicus, Erythrocyte, 3 μmol/l. Type of experiment: cell-based. The protocol:
as §1, §2, §3

For experiment [3] the test system is unchanged. As to the kind of experiment: Reduction of increased sorbitol levels in streptozotocin-diabetic rats, erythrocytes. Type of experiment: in vivo. The settings on record: 25 mg/kg oral in Tylose suspension, vs untreated controls. The source says:
(§4) 3. reduction of increased sorbitol levels in streptozotocin-diabetic rats in vivo;
(§5) Reduction of increased sorbitol levels
(§6) The oral administration in ®Tylose suspension (=suspension of a water-soluble cellulose ether), of the substances mentioned as examples in the following Table 3 to streptozotocin-diabetic rats leads to a great reduction in the sorbitol accumulation in erythrocytes and in the nerve tissue in comparison with untreated control animals.

In experiment [4] the test system is sorbitol accumulation in nerve tissue. The experiment is described as follows: Reduction of increased sorbitol levels in streptozotocin-diabetic rats, nerve tissue. Type of experiment: in vivo. The settings on record: 25 mg/kg oral in Tylose suspension, vs untreated controls.
Text: as §4, §5, §6

In the next experiment the target is aldose reductase (Rattus norvegicus, UniProt P07943). As to the kind of experiment: In vitro inhibition of enzyme activity (rat hepatic enzyme preparation). In kind it is biochemical. The settings on record: read-out: IC50 (molar concentration required for 50% inhibition of aldose reductase). The source says: 1. in vitro inhibition of the enzyme activity of isolated aldose reductase;
In vitro inhibition of enzyme activity (rat hepatic enzyme preparation)
The inhibiting values on aldose reductase are summarized in Table 1 for some compounds according to the invention (IC50 [M] denotes the molar concentration of the compound which is required for 50% inhibition).

For `Cc1nc2ccccc2nc1C1(C)NC(=O)NC1=O` (single isomer, unassigned; (+)) [Example 33, (+)-5-Methyl-5-(3'-methyl-quinoxalin-2'-yl)-imidazolidine-2,4-dione], the inhibition at 3 µM is -30% in experiment [1] and -26% in experiment [2].
Take `CC1(c2cnc3ccccc3n2)NC(=O)NC1=O` (centres unmarked) [Example 18, 5-(Quinoxalin-2'-yl)-5-methyl-imidazolidine-2,4-dione]: the inhibition at 3 µM in experiment [1] was -39%; in experiment [2], -10%.
Take `CCc1nc2ccc(C3(C)NC(=O)NC3=O)cc2nc1CC` (centres unmarked) [Example 2, 5-(2',3'-Diethyl-quinoxalin-6'-yl)-5-methyl-imidazolidine2,4-dione]: in experiment [3], the “Sorbitol content after 5 hours in erythrocytes” value is reported as -57%. The inhibition at 3 µM in experiment [1] was -30%. For the same compound, the “Sorbitol content after 5 hours in nerve tissue” value in experiment [4] is on record as -22%.
For the compound `COc1cc2ncc(C3(C)NC(=O)NC3=O)nc2cc1OC` (centres unmarked) [Example 21, 5-(6',7'-Dimethoxy-quinoxalin-2'-yl)-5-methyl-imidazolidine-2,4-dione], the inhibition at 3 µM in experiment [1] is -38%; in experiment [2] it was -26%.
“5-(6'/7'-Fluoro-3'-methyl-quinoxalin-2'-yl)-5-methyl-imidazolidine-2,4-dion [Example 26]”: the IC50 on aldose reductase worked out at 280 µM.
Regarding `Cc1nc2ccccc2nc1C1(C)NC(=O)NC1=O` (centres unmarked) [Example 23, 5-Methyl-5-(3'-methyl-quinoxalin-2'-yl)-imidazolidine-2,4-dione], the “Sorbitol content after 5 hours in erythrocytes” value in experiment [3] is -72%. For the same compound, the figures for the inhibition at 3 µM in experiment [1] and in experiment [2] were -65% and -21%, respectively. Further, the “Sorbitol content after 5 hours in nerve tissue” value in experiment [4] was -83%.
As for `Cc1cc2nc(C)c(C3(C)NC(=O)NC3=O)nc2cc1C` (centres unmarked) [Example 20, 5-Methyl-5-(3',6',7'-trimethyl-quinoxalin-2'-yl)-imidazolidine-2,4-dione hydrate], the inhibition at 3 µM in experiment [2] is -29%.
For “5-(6'/7'-Fluoro-quinoxalin-2'-yl)-5-methyl-imidazolidine-2,4-dione [Example 25]”, in experiment [3], the “Sorbitol content after 5 hours in erythrocytes” value is reported as -66%. The “Sorbitol content after 5 hours in nerve tissue” value in experiment [4] is -70%.
